# Laboratory results published in article PMC7567334 (Environmental Health Perspectives, 2020).
# Assays:
# [1] = molecular target: T1, human (h)AR (Homo sapiens, UniProt P10275); assay: AR-EcoScreen hAR transcriptional activation assay, antagonist setup (500 pM DHT); type: cell-based; settings: vs 0.1% DMSO with 500 pM DHT
# T1 sequence (P10275 1-920): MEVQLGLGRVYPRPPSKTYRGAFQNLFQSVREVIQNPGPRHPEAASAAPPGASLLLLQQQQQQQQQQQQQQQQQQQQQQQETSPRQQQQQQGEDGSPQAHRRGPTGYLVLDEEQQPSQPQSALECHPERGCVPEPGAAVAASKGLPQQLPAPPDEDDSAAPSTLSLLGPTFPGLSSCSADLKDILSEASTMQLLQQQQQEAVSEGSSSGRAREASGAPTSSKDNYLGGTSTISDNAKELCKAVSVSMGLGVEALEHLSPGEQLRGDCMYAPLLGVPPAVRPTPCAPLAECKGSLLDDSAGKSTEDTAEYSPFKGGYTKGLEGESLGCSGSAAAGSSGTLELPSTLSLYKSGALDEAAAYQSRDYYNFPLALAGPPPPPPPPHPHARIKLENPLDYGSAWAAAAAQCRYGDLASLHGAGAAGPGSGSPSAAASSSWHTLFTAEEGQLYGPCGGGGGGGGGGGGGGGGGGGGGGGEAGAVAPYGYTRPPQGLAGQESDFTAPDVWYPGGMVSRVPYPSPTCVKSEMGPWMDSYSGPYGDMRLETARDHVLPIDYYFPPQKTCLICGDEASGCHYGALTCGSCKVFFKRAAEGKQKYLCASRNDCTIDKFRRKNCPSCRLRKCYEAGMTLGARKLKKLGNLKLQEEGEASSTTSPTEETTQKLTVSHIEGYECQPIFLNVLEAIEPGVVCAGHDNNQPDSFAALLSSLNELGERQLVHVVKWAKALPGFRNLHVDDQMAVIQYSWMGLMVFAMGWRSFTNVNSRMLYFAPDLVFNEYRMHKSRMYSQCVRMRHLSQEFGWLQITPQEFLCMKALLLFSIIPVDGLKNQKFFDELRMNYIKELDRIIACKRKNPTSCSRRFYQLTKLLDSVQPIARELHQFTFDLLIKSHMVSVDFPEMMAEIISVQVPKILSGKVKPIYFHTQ
# [2] = test system: recombinant AR; settings: ref Chen et al. 2008; cited from earlier work
smiles,measurement,setting,value
"O=C(Nc1ccc(Cl)cc1)Nc1ccc(Cl)c(Cl)c1 [Triclocarban, 1-(4-Chlorophenyl)-3-(3,4-dichlorophenyl) urea]",higher AR RTA than spike-in control,[1]; 1 μM,30.7%
same,higher AR RTA than spike-in control,[1]; 2.5 μM,39.4%
same,binding to recombinant AR,[2],Negative for recombinant AR ([Chen et al. 2008])
